Experimental data as given in US11998539B2, “Substituted aminoquinolones as DGKalpha inhibitors for immune activation” (Bayer Aktiengesellschaft, priority 2019, dated 2024).

Biological target: DGKα (Homo sapiens (Human), UniProt P23743)
Experiment: Human DGKα kinase activity inhibition assay (ADP-Glo)
Format: biochemical
Details: recombinant full-length human DGKα, 55 μM ATP, 7 μM 1,2-dioleoyl-sn-glycerol, read-out: IC50 values of examples in in vitro human DGKa kinase activity inhibition assays
Procedure, shortened: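 Recombinant full-length human DGKα (C-terminal FLAG, from insect cells) phosphorylated 1,2-dioleoyl-sn-glycerol presented in octyl-glucopyranoside micelles. ADP formed was quantified by ADP-Glo luminescence. Compounds were added from 100-fold DMSO stocks.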

DGKα, sequence (P23743 other isoform, or with tags, fused parts or gaps): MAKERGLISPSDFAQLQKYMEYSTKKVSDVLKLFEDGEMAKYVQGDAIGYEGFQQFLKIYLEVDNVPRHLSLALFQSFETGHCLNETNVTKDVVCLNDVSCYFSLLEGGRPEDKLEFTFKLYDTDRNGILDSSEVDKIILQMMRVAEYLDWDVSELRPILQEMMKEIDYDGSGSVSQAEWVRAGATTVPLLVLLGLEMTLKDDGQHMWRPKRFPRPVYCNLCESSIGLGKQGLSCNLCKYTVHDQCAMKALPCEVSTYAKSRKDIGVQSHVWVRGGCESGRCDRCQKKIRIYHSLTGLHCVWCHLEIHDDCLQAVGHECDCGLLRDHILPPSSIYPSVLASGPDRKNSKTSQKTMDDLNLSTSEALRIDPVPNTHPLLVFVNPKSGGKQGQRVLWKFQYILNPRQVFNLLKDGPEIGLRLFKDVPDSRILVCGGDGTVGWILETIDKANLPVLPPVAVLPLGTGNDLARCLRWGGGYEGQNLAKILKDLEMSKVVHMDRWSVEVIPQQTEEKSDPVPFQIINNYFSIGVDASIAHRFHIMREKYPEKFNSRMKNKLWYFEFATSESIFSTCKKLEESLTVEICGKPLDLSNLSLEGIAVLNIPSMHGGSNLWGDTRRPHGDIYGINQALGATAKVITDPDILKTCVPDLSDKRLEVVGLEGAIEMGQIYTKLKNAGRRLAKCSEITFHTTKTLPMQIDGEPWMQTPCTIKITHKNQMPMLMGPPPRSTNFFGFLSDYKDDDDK

| SMILES | IC50 |
| --- | --- |
| Cc1ccc2oc(C3(C)CCN(c4c(C#N)c(=O)n(C)c5c(Cl)cccc45)CC3)nc2c1 [Example 231, 8-chloro-1-methyl-4-[4-methyl-4-(5-methyl-1,3-benzoxazol-2-yl)piperidin-1-yl]-2-oxo-1,2-dihydroquinoline-3-carbonitrile] | 108 nM |
| Cc1ccc2oc(C3CCN(c4c(C#N)c(=O)n(C)c5c(Cl)cccc45)CC3)nc2c1 [Example 232, 8-chloro-1-methyl-4-[4-(5-methyl-1,3-benzoxazol-2-yl)piperidin-1-yl]-2-oxo-1,2-dihydroquinoline-3-carbonitrile] | 163 nM |
| Cc1ccc2oc(C3(C)CCN(c4c(C#N)c(=O)n(C)c5c(Br)cccc45)CC3)nc2c1C(F)(F)F [Example 233, 8-bromo-1-methyl-4-{4-methyl-4-[5-methyl-4-(trifluoromethyl)-1,3-benzoxazol-2-yl]piperidin-1-yl}-2-oxo-1,2-dihydroquinoline-3-carbonitrile] | 1270 nM |
| Cc1ccc2oc([C@H]3CCN(c4c(C#N)c(=O)n(C)c5ccccc45)[C@@H](C)C3)nc2c1 [Example 234, 1-methyl-4-[(2S,4S)-2-methyl-4-(5-methyl-1,3-benzoxazol-2-yl)piperidin-1-yl]-2-oxo-1,2-dihydroquinoline-3-carbonitrile] | 1.8 nM |
| Cn1c(=O)c(C#N)c(N2CCC(C)(c3nc4ccccc4o3)CC2)c2ccc(F)cc21 [Example 235, 4-[4-(1,3-benzoxazol-2-yl)-4-methylpiperidin-1-yl]-7-fluoro-1-methyl-2-oxo-1,2-dihydroquinoline-3-carbonitrile] | 2.9 nM |
| Cn1c(=O)c(C#N)c(N2CCC(c3nc4ccccc4o3)CC2)c2ccc(F)cc21 [Example 236, 4-[4-(1,3-benzoxazol-2-yl)piperidin-1-yl]-7-fluoro-1-methyl-2-oxo-1,2-dihydroquinoline-3-carbonitrile] | 4.3 nM |
| Cc1ccc2oc(C3(C)CCN(c4c(C#N)c(=O)n(C)c5cc(F)ccc45)CC3)nc2c1 [Example 237, 7-fluoro-1-methyl-4-[4-methyl-4-(5-methyl-1,3-benzoxazol-2-yl)piperidin-1-yl]-2-oxo-1,2-dihydroquinoline-3-carbonitrile] | 5 nM |
| Cc1ccc2oc(C3CCN(c4c(C#N)c(=O)n(C)c5cc(F)ccc45)CC3)nc2c1 [Example 238, 7-fluoro-1-methyl-4-[4-(5-methyl-1,3-benzoxazol-2-yl)piperidin-1-yl]-2-oxo-1,2-dihydroquinoline-3-carbonitrile] | 12 nM |
| Cc1ccc2oc(C3(C)CCN(c4c(C#N)c(=O)n(C)c5cc(OCC6(O)CC6)ccc45)CC3)nc2c1 [Example 239, 7-[(1-hydroxycyclopropyl)methoxy]-1-methyl-4-[4-methyl-4-(5-methyl-1,3-benzoxazol-2-yl)piperidin-1-yl]-2-oxo-1,2-dihydroquinoline-3-carbonitrile] | 0.6 nM |
| COc1ccc2c(N3CCC(c4nc5ccccc5s4)CC3)c(C#N)c(=O)n(C)c2c1 [Example 240, 4-[4-(1,3-benzothiazol-2-yl)piperidin-1-yl]-7-methoxy-1-methyl-2-oxo-1,2-dihydroquinoline-3-carbonitrile] | 2.5 nM |
| Cc1ccc2oc(C3(C)CCN(c4c(C#N)c(=O)n(C)c5cc(OC6COC6)ccc45)CC3)nc2c1 [Example 241, 1-methyl-4-[4-methyl-4-(5-methyl-1,3-benzoxazol-2-yl)piperidin-1-yl]-7-[(oxetan-3-yl)oxy]-2-oxo-1,2-dihydroquinoline-3-carbonitrile] | 2.5 nM |
| Cc1ccc2oc(C3(C)CCN(c4c(C#N)c(=O)n(C)c5ccc(O)cc45)CC3)nc2c1 [Example 242, 6-hydroxy-1-methyl-4-[4-methyl-4-(5-methyl-1,3-benzoxazol-2-yl)piperidin-1-yl]-2-oxo-1,2-dihydroquinoline-3-carbonitrile] | 2.7 nM |
| COc1ccc2c(N3CCC(c4nc5ccccc5o4)CC3)c(C#N)c(=O)n(C)c2c1 [Example 243, 4-[4-(1,3-benzoxazol-2-yl)piperidin-1-yl]-7-methoxy-1-methyl-2-oxo-1,2-dihydroquinoline-3-carbonitrile] | 3.5 nM |
| Cc1ccc2oc(C3(C)CCN(c4c(C#N)c(=O)n(C)c5cc(OC6CC6)ccc45)CC3)nc2c1 [Example 244, 7-(cyclopropyloxy)-1-methyl-4-[4-methyl-4-(5-methyl-1,3-benzoxazol-2-yl)piperidin-1-yl]-2-oxo-1,2-dihydroquinoline-3-carbonitrile] | 4.6 nM |
| Cc1ccc2oc(C3(C)CCN(c4c(C#N)c(=O)n(C)c5c(C6COC6)cccc45)CC3)nc2c1 [Example 245, 1-methyl-4-[4-methyl-4-(5-methyl-1,3-benzoxazol-2-yl)piperidin-1-yl]-8-(oxetan-3-yl)-2-oxo-1,2-dihydroquinoline-3-carbonitrile] | 5.9 nM |
| COc1ccc2c(c1)c(N1CCC(C)(c3nc4cc(C)ccc4o3)CC1)c(C#N)c(=O)n2C [Example 246, 6-methoxy-1-methyl-4-[4-methyl-4-(5-methyl-1,3-benzoxazol-2-yl)piperidin-1-yl]-2-oxo-1,2-dihydroquinoline-3-carbonitrile] | 6.5 nM |

| SMILES | IC50 |
| --- | --- |
| Cc1ccc2oc(C3(C)CCN(c4c(C#N)c(=O)n(C)c5cc(OC6CCC6)ccc45)CC3)nc2c1 [Example 247, 7-(cyclobutyloxy)-1-methyl-4-[4-methyl-4-(5-methyl-1,3-benzoxazol-2-yl)piperidin-1-yl]-2-oxo-1,2-dihydroquinoline-3-carbonitrile] | 6.9 nM |
| COc1ccc2c(N3CCC(C)(c4nc5cc(C)ccc5o4)CC3)c(C#N)c(=O)n(C)c2c1 [Example 248, 7-methoxy-1-methyl-4-[4-methyl-4-(5-methyl-1,3-benzoxazol-2-yl)piperidin-1-yl]-2-oxo-1,2-dihydroquinoline-3-carbonitrile] | 6.9 nM |
| Cc1ccc2oc(C3(C)CCN(c4c(C#N)c(=O)n(C)c5cc(C#N)ccc45)CC3)nc2c1 [Example 249, 1-methyl-4-[4-methyl-4-(5-methyl-1,3-benzoxazol-2-yl)piperidin-1-yl]-2-oxo-1,2-dihydroquinoline-3,7-dicarbonitrile] | 7.2 nM |
| Cc1ccc2oc(C3(C)CCN(c4c(C#N)c(=O)n(C)c5cc(C6CC6)ccc45)CC3)nc2c1 [Example 250, 7-cyclopropyl-1-methyl-4-[4-methyl-4-(5-methyl-1,3-benzoxazol-2-yl)piperidin-1-yl]-2-oxo-1,2-dihydroquinoline-3-carbonitrile] | 9.1 nM |
| Cc1ccc2oc(C3(C)CCN(c4c(C#N)c(=O)n(C)c5cc(OCC6(C#N)CC6)ccc45)CC3)nc2c1 [Example 251, 7-[(1-cyanocyclopropyl)methoxy]-1-methyl-4-[4-methyl-4-(5-methyl-1,3-benzoxazol-2-yl)piperidin-1-yl]-2-oxo-1,2-dihydroquinoline-3-carbonitrile] | 9.3 nM |
| Cc1ccc2oc(C3(C)CCN(c4c(C#N)c(=O)n(C)c5cc(C6CC(F)(F)C6)ccc45)CC3)nc2c1 [Example 252, 7-(3,3-difluorocyclobutyl)-1-methyl-4-[4-methyl-4-(5-methyl-1,3-benzoxazol-2-yl)piperidin-1-yl]-2-oxo-1,2-dihydroquinoline-3-carbonitrile] | 13 nM |
| Cc1ccc2oc(C3(C)CCN(c4c(C#N)c(=O)n(C)c5c(OC6COC6)cccc45)CC3)nc2c1 [Example 253, 1-methyl-4-[4-methyl-4-(5-methyl-1,3-benzoxazol-2-yl)piperidin-1-yl]-8-[(oxetan-3-yl)oxy]-2-oxo-1,2-dihydroquinoline-3-carbonitrile] | 14 nM |
| COc1ccc2c(N3CCC(c4nc5cc(F)c(F)cc5o4)CC3)c(C#N)c(=O)n(C)c2c1 [Example 254, 4-[4-(5,6-difluoro-1,3-benzoxazol-2-yl)piperidin-1-yl]-7-methoxy-1-methyl-2-oxo-1,2-dihydroquinoline-3-carbonitrile] | 15 nM |
| Cc1ccc2c(N3CCC(c4ccccc4)CC3)c(C#N)c(=O)n(C)c2c1 [Example 255, 1,7-dimethyl-2-oxo-4-(4-phenylpiperidin-1-yl)-1,2-dihydroquinoline-3-carbonitrile] | 18 nM |
| COc1ccc2c(N3CCC(c4ccccc4)CC3)c(C#N)c(=O)n(C)c2c1 [Example 256, 7-methoxy-1-methyl-2-oxo-4-(4-phenylpiperidin-1-yl)-1,2-dihydroquinoline-3-carbonitrile] | 25 nM |
| CCCOc1ccc2c(N3CCC(C)(c4nc5cc(C)ccc5o4)CC3)c(C#N)c(=O)n(C)c2c1 [Example 257, 1-methyl-4-[4-methyl-4-(5-methyl-1,3-benzoxazol-2-yl)piperidin-1-yl]-2-oxo-7-propoxy-1,2-dihydroquinoline-3-carbonitrile] | 26 nM |
| COc1ccc2c(N3CCC(c4nc5ccc(Cl)cc5o4)CC3)c(C#N)c(=O)n(C)c2c1 [Example 258, 4-[4-(6-chloro-1,3-benzoxazol-2-yl)piperidin-1-yl]-7-methoxy-1-methyl-2-oxo-1,2-dihydroquinoline-3-carbonitrile] | 29 nM |
| COc1ccc2c(N3CCC(c4nc5cc(Cl)ccc5o4)CC3)c(C#N)c(=O)n(C)c2c1 [Example 259, 4-[4-(5-chloro-1,3-benzoxazol-2-yl)piperidin-1-yl]-7-methoxy-1-methyl-2-oxo-1,2-dihydroquinoline-3-carbonitrile] | 29 nM |
| COc1cccc2c(N3CCC(C)(c4nc5cc(C)ccc5o4)CC3)c(C#N)c(=O)n(C)c12 [Example 260, 8-methoxy-1-methyl-4-[4-methyl-4-(5-methyl-1,3-benzoxazol-2-yl)piperidin-1-yl]-2-oxo-1,2-dihydroquinoline-3-carbonitrile] | 35 nM |
| Cc1ccc2oc(C3(C)CCN(c4c(C#N)c(=O)n(C)c5cc(C6COC6)ccc45)CC3)nc2c1 [Example 261, 1-methyl-4-[4-methyl-4-(5-methyl-1,3-benzoxazol-2-yl)piperidin-1-yl]-7-(oxetan-3-yl)-2-oxo-1,2-dihydroquinoline-3-carbonitrile] | 35 nM |
